Calls of active or inactive are those of the source. The calls are words filed in the database; no cut-off is given here.
Assays:
[1] = molecular target: T1, Tyrosinase (Agaricus bisporus) (UniProt O42713); experiment: Competitive inhibition of mushroom tyrosinase assessed as reduction in L-DOPA oxidase activity at 0.15 mM to 0.6 mM using L-DOPA substrate by Lineweaver-Burk plot
T1 sequence (whole entry): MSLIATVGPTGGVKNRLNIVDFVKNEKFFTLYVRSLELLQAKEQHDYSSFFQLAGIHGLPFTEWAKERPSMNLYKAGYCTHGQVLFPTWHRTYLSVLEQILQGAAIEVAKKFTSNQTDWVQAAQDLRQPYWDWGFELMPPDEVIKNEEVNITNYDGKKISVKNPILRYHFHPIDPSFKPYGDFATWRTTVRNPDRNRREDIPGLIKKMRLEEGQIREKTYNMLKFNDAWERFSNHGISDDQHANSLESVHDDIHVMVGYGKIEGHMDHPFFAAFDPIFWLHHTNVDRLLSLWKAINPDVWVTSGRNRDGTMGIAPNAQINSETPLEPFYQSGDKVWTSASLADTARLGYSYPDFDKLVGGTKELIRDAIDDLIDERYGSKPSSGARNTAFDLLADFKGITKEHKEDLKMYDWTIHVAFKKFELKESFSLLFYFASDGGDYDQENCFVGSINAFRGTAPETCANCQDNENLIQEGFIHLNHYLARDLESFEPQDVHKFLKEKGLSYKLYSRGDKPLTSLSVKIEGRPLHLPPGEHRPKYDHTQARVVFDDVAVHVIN

Tyrosinase [2] = molecular target: T2, Tyrosinase (Agaricus bisporus, UniProt O42713)
T2 sequence (O42713 whole entry): T1 sequence (whole entry)
Description: Inhibition of mushroom tyrosinase assessed as reduction in L-DOPA oxidase activity using L-DOPA substrate

Tyrosinase [3] = molecular target: T2, Tyrosinase; remark: listed apart in the source
Description: Inhibition of mushroom tyrosinase assessed as reduction in L-DOPA oxidase activity using L-DOPA substrate at 5 uM by Dixon plot

| SMILES | inhibition [1] | IC50 (Tyrosinase [2]) [µM] | Ki (Tyrosinase [3]) [µM] |
| --- | --- | --- | --- |
| COc1cc(/C=C/C(=N\O)c2cc3ccccc3cc2O)cc(OC)c1 | Active | 52.9 | 28.6 |
| COc1ccc(/C=C/C(=N\O)c2cc3ccccc3cc2O)c(OC)c1 | Active | 23 | 10.6 |
| COc1ccc(/C=C/C(=N\O)c2cc3ccccc3cc2O)cc1OC | Active | 42.3 | 22.9 |

The next compounds have a lower IC50 (Tyrosinase [2]) than those just listed; values first:

| inhibition [1] | IC50 (Tyrosinase [2]) [µM] | Ki (Tyrosinase [3]) [µM] | SMILES |
| --- | --- | --- | --- |
| Active | 12.2 | 6.46 | O/N=C(\C=C\c1cccnc1)c1cc2ccccc2cc1O |
| Active | 21.9 | 9.4 | COc1ccc(OC)c(/C=C/C(=N\O)c2cc3ccccc3cc2O)c1 |
| Active | 20.2 | 11.1 | O/N=C(\C=C\c1ccccn1)c1cc2ccccc2cc1O |
| Active | 19.5 | 7.82 | O/N=C(\C=C\c1ccncc1)c1cc2ccccc2cc1O |
